Results reported in patent US20140005165A1, “SUBSTITUTED 3-AZABICYCLO[3.1.0]HEXANE DERIVATIVES USEFUL AS CCR2 ANTAGONISTS” (priority 2011, published 2014).

Target: T1, human CCR2 (Homo sapiens, UniProt P41597)
T1 construct: expressed in transfected cells; host or cells: Ba/F3 cells (membrane preparation)
Experiment: CCR2 Membrane Binding Assay (SPA radio-ligand binding, 125I-rhMCP-1)
Conditions: membranes from Ba/F3 cells transfected with human CCR2, 0.03 nM 125I-rhMCP-1
Outline: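 SPA competition binding: membranes from Ba/F3 cells expressing human CCR2, pre-bound to WGA SPA beads, incubated 4 h at room temperature with compounds (1% DMSO final) and 0.03 nM 125I-rhMCP-1 in pH 7.4 HEPES buffer with MgCl2, NaCl, CaCl2, BSA and saponin. IC50 and slope derived from bound counts.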

T1 sequence (P41597 whole entry): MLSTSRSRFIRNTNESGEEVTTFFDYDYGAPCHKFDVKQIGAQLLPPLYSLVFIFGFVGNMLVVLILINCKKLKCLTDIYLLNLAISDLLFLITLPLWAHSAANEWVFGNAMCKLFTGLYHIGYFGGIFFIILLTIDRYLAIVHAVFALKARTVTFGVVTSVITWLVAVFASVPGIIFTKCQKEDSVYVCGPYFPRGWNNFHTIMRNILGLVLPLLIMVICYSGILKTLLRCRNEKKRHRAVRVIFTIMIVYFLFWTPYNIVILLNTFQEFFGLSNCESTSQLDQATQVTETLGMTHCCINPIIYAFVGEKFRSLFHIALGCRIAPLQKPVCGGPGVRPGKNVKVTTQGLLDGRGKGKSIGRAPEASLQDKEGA

Compound | IC50 (class symbols) | IC50 (nM) (class symbols) | further results
O=C([C@H]1[C@@H]2CN([C@H]3CC[C@@H](c4ccccc4)CC3)C[C@@H]21)N1CC[C@H](Nc2nccc(C(F)(F)F)n2)C1 [Compound 111] | 51 to 200 nM |  | 
O=C(CNC(=O)[C@H]1[C@@H]2CN(C3CCCC(c4ccccc4)C3)C[C@@H]21)Nc1cccc(C(F)(F)F)c1 (stereo partly shown) [Compound 80] |  | D (compounds with IC50 values between 701 nM and 110 nM are designated as D class compounds) | 
O=C(CNC(=O)[C@H]1[C@@H]2CN([C@H]3CC[C@@H](NS(=O)(=O)C4CC4)CC3)C[C@@H]21)Nc1cccc(C(F)(F)F)c1 [Compound 142] |  | D (compounds with IC50 values between 701 nM and 110 nM are designated as D class compounds) | 
O=C(CNC(=O)[C@H]1[C@@H]2CN(C3CCC(c4ccccc4)CC3)C[C@@H]21)Nc1cccc(C(F)(F)F)c1 (stereo partly shown) [Compound 4] |  |  | IC50 (4 h room temperature): 3.5 nM
O=C(NC1Cc2ccccc2C1)[C@H]1[C@@H]2CN([C@H]3CC[C@@H](c4ccccc4)CC3)C[C@@H]21 [Compound 16] |  | D (compounds with IC50 values between 701 nM and 110 nM are designated as D class compounds) | 

Continued, in another order:

IC50 (class symbols) | Compound | IC50 (nM) (class symbols) | further results
51 to 200 nM | Cn1ncc2cc([C@H]3CC[C@H](N4C[C@@H]5[C@H](C4)[C@H]5C(=O)NCC(=O)Nc4cccc(C(F)(F)F)c4)CC3)ccc21 [Compound 151] |  | 
51 to 200 nM | CC1CCCCC1N1C[C@@H]2[C@H](C1)[C@H]2C(=O)NCC(=O)Nc1cccc(C(F)(F)F)c1 (stereo partly shown) [Compound 31] |  | 
